These results are taken from ChEMBL document CHEMBL3856287, “Synthesis of novel tetrazole derivatives and evaluation of their antifungal activity” (Bioorg Med Chem, 2016).

Converted amounts (≈) assume the structure as drawn.

Common to all, as to type: functional
The subject of experiment [1] is Aspergillus niger. The experiment in a line: Antifungal activity against Aspergillus niger ATCC 16404 assessed as radial growth inhibition at 32 ug/ml after 5 to 7 days relative to control. The following applies: read-out: GI.
Experiment [2] can be described thus: Antifungal activity against Fusarium oxysporum MF5 assessed as radial growth inhibition at 32 ug/ml after 5 to 7 days relative to control.
A short description of experiment [3]: Antifungal activity against Fusarium sambucinum MF1 assessed as radial growth inhibition at 32 ug/ml after 5 to 7 days relative to control.
Experiment [4] relates to Candida albicans. The experiment in a line: Fungicidal activity against Candida albicans ATCC 90028 after 48 hrs by broth microdilution method. The following applies: ATCC 90028, 48 h. In general terms: Dilution methods test growth across graded concentrations, often in twofold steps.
For experiment [5], the system named is Candida albicans. Put plainly: Antifungal activity against Candida albicans ATCC 90028 assessed as growth inhibition after 48 hrs by broth microdilution method. The following applies: ATCC 90028, 48 h.
A short description of experiment [6]: Antifungal activity against Colletotrichum coccodes MC1 assessed as radial growth inhibition at 32 ug/ml after 5 to 7 days relative to control.
Experiment [7] can be described thus: Antifungal activity against Fusarium sambucinum MF1 assessed as radial growth inhibition at 16 ug/ml after 5 to 7 days relative to control.
Experiment [8] relates to Aspergillus niger. Put plainly: Antifungal activity against Aspergillus niger ATCC 16404 assessed as radial growth inhibition at 16 ug/ml after 5 to 7 days relative to control. The settings on record: read-out: GI.
Experiment [9] in a line: Antifungal activity against Fusarium oxysporum MF5 assessed as radial growth inhibition at 16 ug/ml after 5 to 7 days relative to control.
The nature of experiment [10]: Antifungal activity against Colletotrichum coccodes MC1 assessed as radial growth inhibition at 16 ug/ml after 5 to 7 days relative to control.

Usually MFC stands for the lowest tested concentration that kills the fungus rather than only halting it. The MIC is the smallest concentration in the dilution series that meets the test's criterion for growth inhibition. As to `OC(Cn1cncn1)(Cn1cncn1)c1ccc(F)cc1F` [FLUCONAZOLE], the inhibition of growth at 32 µg/mL in the experiment on Aspergillus niger [1] is 52.9%. The growth inhibition (GI) worked out at 17.6% in experiment [2], 67.7% in experiment [3] and 100% in [6]. The same compound yielded an MFC against Candida albicans [4] of 0.5 µg/mL (≈ 1.63 µM). Also, in the experiment on Candida albicans [5], the MIC amounted to 0.25 µg/mL (≈ 0.816 µM).

As for `C[C@@H]1[C@H](O)[C@@H](C)/C=C/C=C/C=C/C=C/C=C/C=C/C=C/[C@H](O[C@@H]2O[C@H](C)[C@@H](O)[C@H](N)[C@@H]2O)C[C@@H]2O[C@](O)(C[C@@H](O)C[C@@H](O)[C@H](O)CC[C@@H](O)C[C@@H](O)CC(=O)O[C@H]1C)C[C@H](O)[C@H]2C(=O)O` [AMPHOTERICIN B], the growth inhibition (GI) in experiment [7] is 86%; in [9], 77%; in experiment [10], 86.7%. Also, in the experiment on Aspergillus niger [8], the inhibition of growth at 16 µg/mL was found to be 100%.
